From patent US8329717B2, “Pyrimidine derivatives and their use for controlling undesired plant growth” (Bayer Cropscience AG, priority 2008, dated 2012)

Tests used:
[1] = logp (HCOOH), chemicophysical data; details: HCOOH
Matricaria inodora = test: Pre-emergence herbicidal effect; type: in vivo; details: Dosage 320 g/ha, visual scoring after 3 weeks vs untreated controls, 100% = plants have died
Description: (§1) 1. Pre-Emergence Herbicidal Effect and Crop Plant Compatibility Seeds of monocotyledonous or dicotyledonous weed plants or crop plants are planted in wood-fiber pots in sandy loam and covered with earth. The compounds according to the invention, formulated in the form of wettable powders (WP) or as emulsion concentrates (EC), are then applied as aqueous suspension or emulsion at a water application rate of 600 to 800 l/ha (converted) with the addition of 0.2% of wetting agent to the surface of the covering earth. The dosage of the compounds according to the invention is given in grams per hectare. Following the treatment, the pots are placed in a greenhouse and kept under good growth conditions for the test plants. The visual scoring of the damage on the test plants is carried out after an experiment time of 3 weeks in comparison with untreated controls (herbicidal effect in percent (%): 100% effect=plants have died, 0% effect=as control plants). The following abbreviations are used in the tables below: [table]

Stellaria media [2] = test: Pre-emergence herbicidal effect; type: in vivo; details: Dosage 320 g/ha, visual scoring after 3 weeks vs untreated controls, 100% = plants have died
Description: as §1

Amaranthus retroflexus [3] = test: Pre-emergence herbicidal effect; type: in vivo; details: Dosage 320 g/ha, visual scoring after 3 weeks vs untreated controls, 100% = plants have died
Description: as §1

Veronica persica [4] = test: Pre-emergence herbicidal effect; type: in vivo; details: Dosage 320 g/ha, visual scoring after 3 weeks vs untreated controls, 100% = plants have died
Description: as §1

Avena fatua = test: Pre-emergence herbicidal effect; type: in vivo; details: Dosage 320 g/ha, visual scoring after 3 weeks vs untreated controls, 100% = plants have died
Description: as §1

Polygonum convolvulus = test: Pre-emergence herbicidal effect; type: in vivo; details: Dosage 320 g/ha, visual scoring after 3 weeks vs untreated controls, 100% = plants have died
Description: as §1

Setaria viridis [5] = test: Pre-emergence herbicidal effect; type: in vivo; details: Dosage 320 g/ha, visual scoring after 3 weeks vs untreated controls, 100% = plants have died
Description: as §1

Echinochloa crus-galli [6] = test: Pre-emergence herbicidal effect; type: in vivo; details: Dosage 320 g/ha, visual scoring after 3 weeks vs untreated controls, 100% = plants have died
Description: as §1

Alopecurus myosuroides [7] = test: Pre-emergence herbicidal effect; type: in vivo; details: Dosage 320 g/ha, visual scoring after 3 weeks vs untreated controls, 100% = plants have died
Description: as §1

Viola tricolor = test: Pre-emergence herbicidal effect; type: in vivo; details: Dosage 320 g/ha, visual scoring after 3 weeks vs untreated controls, 100% = plants have died
Description: as §1

Stellaria media [8] = test: Post-emergence herbicidal effect; type: in vivo; details: Dosage 320 g/ha, one-leaf stage, visual scoring after ca. 3 weeks vs untreated controls, 100% = plants have died
Method: (§2) The following abbreviations are used in the tables below: [table] 2. Post-Emergence Herbicidal Effect and Crop Plant Compatibility Seeds of monocotyledonous or dicotyledonous weed plants or crop plants are planted in wood-fiber pots in sandy loam, covered with earth and grown in a greenhouse under good growth conditions. 2 to 3 weeks after sowing, the test plants are treated in the one-leaf stage. The compounds according to the invention, formulated in the form of wettable powders (WP) or as emulsion concentrates (EC), are then sprayed onto the green plant parts as aqueous suspension or emulsion at a water application rate of 600 to 800 l/ha (converted) with the addition of 0.2% of wetting agent. The dosage of the compounds according to the invention is given in grams per hectare. After ca. 3 weeks' standing time of the test plants in the greenhouse under optimum growth conditions, the effect of the preparations is scored visually in comparison with untreated controls (herbicidal effect in percent (%): 100% effect=plants have died, 0% effect=as control plants).

Veronica persica [9] = test: Post-emergence herbicidal effect; type: in vivo; details: Dosage 320 g/ha, one-leaf stage, visual scoring after ca. 3 weeks vs untreated controls, 100% = plants have died
Method: as §2

Setaria viridis [10] = test: Post-emergence herbicidal effect; type: in vivo; details: Dosage 320 g/ha, one-leaf stage, visual scoring after ca. 3 weeks vs untreated controls, 100% = plants have died
Method: as §2

Echinochloa crus-galli [11] = test: Post-emergence herbicidal effect; type: in vivo; details: Dosage 320 g/ha, one-leaf stage, visual scoring after ca. 3 weeks vs untreated controls, 100% = plants have died
Method: as §2

Lolium multiflorum [12] = test: Pre-emergence herbicidal effect; type: in vivo; details: Dosage 320 g/ha, visual scoring after 3 weeks vs untreated controls, 100% = plants have died
Description: as §1

Amaranthus retroflexus [13] = test: Post-emergence herbicidal effect; type: in vivo; details: Dosage 320 g/ha, one-leaf stage, visual scoring after ca. 3 weeks vs untreated controls, 100% = plants have died
Method: as §2

Lolium multiflorum [14] = test: Post-emergence herbicidal effect; type: in vivo; details: Dosage 320 g/ha, one-leaf stage, visual scoring after ca. 3 weeks vs untreated controls, 100% = plants have died
Method: as §2

Alopecurus myosuroides [15] = test: Post-emergence herbicidal effect; type: in vivo; details: Dosage 320 g/ha, one-leaf stage, visual scoring after ca. 3 weeks vs untreated controls, 100% = plants have died
Method: as §2

PHBPU = test: Post-emergence herbicidal effect; type: in vivo; details: Dosage 320 g/ha, one-leaf stage, visual scoring after ca. 3 weeks vs untreated controls, 100% = plants have died
Method: as §2, with “2.” for “The following abbreviations are used in the tables below: [table] 2.”

Compound	logp (HCOOH) [1]	Pre-emergence herbicidal effect MATIN (Matricaria inodora)	Pre-emergence herbicidal effect STEME (Stellaria media [2])	Pre-emergence herbicidal effect AMARE (Amaranthus retroflexus [3])	Pre-emergence herbicidal effect VERPE (Veronica persica [4])	Pre-emergence herbicidal effect AVEFA (Avena fatua)	Pre-emergence herbicidal effect POLCO (Polygonum convolvulus)	Pre-emergence herbicidal effect SETVI (Setaria viridis [5])	Pre-emergence herbicidal effect ECHCG (Echinochloa crus-galli [6])	Pre-emergence herbicidal effect ALOMY (Alopecurus myosuroides [7])	Pre-emergence herbicidal effect VIOTR (Viola tricolor)	Post-emergence herbicidal effect STEME (Stellaria media [8])	Post-emergence herbicidal effect VERPE (Veronica persica [9])	Post-emergence herbicidal effect SETVI (Setaria viridis [10])	Post-emergence herbicidal effect ECHCG (Echinochloa crus-galli [11])	Pre-emergence herbicidal effect LOLMU (Lolium multiflorum [12])	Post-emergence herbicidal effect AMARE (Amaranthus retroflexus [13])	Post-emergence herbicidal effect LOLMU (Lolium multiflorum [14])	Post-emergence herbicidal effect ALOMY (Alopecurus myosuroides [15])	Post-emergence herbicidal effect PHBPU (PHBPU)
CCc1nc(N[C@@H]2CCCc3ccccc32)nc(N)c1C#N [Example 1.63]	wax-like; logp (HCOOH): 2.49; 1H-NMR (CDCl3, 400 MHZ, δ in ppm): 1.25 (t, 3H, CH3);	100%	100%	90%	100%	80%	100%	100%	100%	100%	100%	80%	80%	80%	80%					
Cc1ccc2c(c1)[C@H](Nc1nc(N)c(C#N)c(C3(c4ccc(Cl)cc4Cl)CC3)n1)[C@@H](C)C2 [Example 1.94]	wax-like; logp (HCOOH): 5.55; 1H-NMR (CDCl3, 400 MHZ, δ in ppm): 1.25 (d, 3H, CH3);	85%	100%	90%	100%	80%	80%	90%	90%	80%	100%					80%				
Nc1nc(N[C@@H]2CCCc3ccccc32)ncc1Br [Example 1.97]		100%	100%	100%	100%			100%	100%	80%	100%	80%	80%	80%	80%	100%	80%	80%		
Nc1nc(N[C@@H]2CCCc3ccccc32)ncc1Cl [Example 1.106]		90%	100%	100%	100%			100%	90%	100%		80%	80%	80%	90%	100%	80%	90%	80%	
CC[C@H]1Cc2ccccc2[C@@H]1Nc1nc(C)c([N+](=O)[O-])c(N)n1 [Example 1.126]		100%	100%	100%	100%		90%	85%	95%		100%	90%	85%		80%					80%
